The assay relates to HSV-1. The experiment in a line: Western assay of IE, DE and L HSV-1 proteins (ICP0, ICP8, gD) in infected Hep-2 cells. Format: cell-based. The following applies: 100 μM, 24 hours pretreatment, HSV-1 0.01 to 1.25 MOI, twenty hours after infection, FIG. 6. From the text: Compounds in accordance with General Formula 1, including derivatives in accordance with any of General Formulae 1-1 to 1-20, can be evaluated for the capacity to inhibit triggered expression of at least a portion of a virus genome containing an IRES sequence by administering the compound, or a pharmaceutically acceptable salt of the compound, to a cell culture and exposing the cell culture to a HSV-1 infection. After a sufficient amount of time, the culture can be examined to determine the expression of IE, DE and L genes. If the amount of at least one protein corresponding to an IE gene and at least one protein corresponding to a DE and/or L gene within the viral genome is diminished compared to that within an identical infected cell culture not treated with the compound or its salt, then the compound would be capable of inhibiting triggered expression of at least a portion of the viral genome. […]
Compounds in accordance with General Formula 1, including derivatives in accordance with any of General Formulae 1-1 to 1-20, or pharmaceutically acceptable salts thereof, can be assessed for the ability to inhibit triggered expression of at least a portion of the HSV-1 genome by infecting Hep-2 cells with the HSV-1 virus. […]

In the case of `Nn1c(S)nnc1-c1ccc(F)cc1` [SD-29], the “expression of IE, DE and L HSV-1 proteins (triggered expression)” value was “significantly inhibited triggered expression”.

The record behind these values is US11576901B2, “Methods for treating viral infection” (HOWARD UNIVERSITY, priority 2016, dated 2023).
